Experiments:
Test in all cases: relative IC50 (inflection point of fitted viability curve, relative to fitted max inhibition); higher = less sensitive
Settings in all cases: 72 h
[1] = system: KHYG-1 (IL-2 2.5 ng/mL)
Experimental: (§1)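 Drug sensitivity and resistance testing: 5 concentrations over a 10,000-fold range, 72 h at 37 °C, viability by CellTiter-Glo normalised to DMSO and benzethonium chloride controls. IC50 is the inflection point of a logistic fit (min fixed at 0, max fitted), so it is relative to the fitted maximal inhibition. Kept only where fitted max inhibition is at least 50%.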

[2] = system: normal primary NK cells, pool 1 (3 donors), resting (IL-2 0 ng/mL)
Experimental: as §1

[3] = system: DERL-7 (IL-2 2.5 ng/mL)
Experimental: as §1

[4] = system: NK-92 (IL-2 2.5 ng/mL)
Experimental: as §1

[5] = system: normal primary NK cells, pool 3 (3 donors) (IL-2 2.5 ng/mL)
Experimental: as §1

[6] = system: IMC-1 (IL-2 20 ng/mL)
Experimental: as §1

[7] = system: normal primary NK cells, pool 1 (3 donors) (IL-2 2.5 ng/mL)
Experimental: as §1

[8] = system: NKL (IL-2 2.5 ng/mL)
Experimental: as §1

[9] = system: KAI3 (IL-2 2.5 ng/mL)
Experimental: as §1

[10] = system: normal primary NK cells, pool 2 (3 donors) (IL-2 2.5 ng/mL)
Experimental: as §1

[11] = system: NK-YS (IL-2 2.5 ng/mL)
Experimental: as §1

[12] = system: YT (IL-2 2.5 ng/mL)
Experimental: as §1

[13] = system: SNK-6 (IL-2 2.5 ng/mL)
Experimental: as §1

| SMILES | relative IC50 [1] | relative IC50 [2] | relative IC50 [3] | relative IC50 [4] | relative IC50 [5] | relative IC50 [6] | relative IC50 [7] | relative IC50 [8] | relative IC50 [9] | relative IC50 [10] | relative IC50 [11] | relative IC50 [12] | relative IC50 [13] |
| --- | --- | --- | --- | --- | --- | --- | --- | --- | --- | --- | --- | --- | --- |
| Nc1nc(F)nc2c1ncn2[C@@H]1O[C@H](CO)[C@@H](O)[C@@H]1O [Fludarabine] | 2.63 µM | 0.491 µM | 3.72 µM | 1.56 µM | 1.36 µM | 3.13 µM | 0.996 µM | 0.895 µM | 2.25 µM | 0.957 µM |  |  |  |
| COc1cc(C(=O)O)ccc1NC(=O)[C@@H]1N[C@@H](CC(C)(C)C)[C@](C#N)(c2ccc(Cl)cc2F)[C@H]1c1cccc(Cl)c1F [Idasanutlin] |  |  |  |  | 0.265 µM |  |  |  |  | 0.197 µM |  |  |  |
| O=C(Cc1ccc(-c2ccc(OCCN3CCOCC3)cc2)cn1)NCc1ccccc1 [KX2-391] | 0.0303 µM |  | 0.0281 µM | 0.0123 µM |  | 0.0344 µM |  | 0.0278 µM | 0.0281 µM |  | 0.0261 µM | 0.023 µM | 0.00546 µM |
| Oc1ccc2c(c1)CC[C@H](c1ccccc1)[C@@H]2c1ccc(OCCN2CCCC2)cc1 [Lasofoxifene] |  |  |  |  | > 1 µM |  |  | > 1 µM |  | > 1 µM |  |  |  |
| Clc1ccc(C(c2ccccc2Cl)C(Cl)Cl)cc1 (configuration not stated) [Mitotane] | > 10 µM |  |  | > 10 µM |  | > 10 µM |  | > 10 µM | > 10 µM | > 10 µM | > 10 µM | > 10 µM |  |
| CNC(=O)c1ccc(-c2cnc3ncc(Cc4ccc5ncccc5c4)n3n2)cc1F [NVP-INC280] |  |  |  |  | > 1 µM |  | > 1 µM |  |  |  |  |  |  |
| COc1cccc2cc(-c3nc([C@H]4CC[C@H](C(=O)O)CC4)n4ncnc(N)c34)[nH]c12 [OSI-027] | 1.5 µM |  | 1.22 µM | 0.579 µM |  |  |  | 0.342 µM | 0.775 µM |  | 1.82 µM | 1.16 µM | 0.564 µM |
| COC1=CC(c2cc3ccccc3[nH]2)=N/C1=C\c1[nH]c(C)cc1C [Obatoclax] |  | 1.88 µM |  | 0.449 µM |  |  |  | 0.247 µM |  |  |  |  |  |
| O=C(Nc1cccnc1)N1CCC(Cc2cccc(Oc3ccc(C(F)(F)F)cn3)c2)CC1 [PF-3845] | 2.56 µM | 3.48 µM |  |  |  |  | 2.86 µM | 1.56 µM |  |  | 2.04 µM |  |  |
| CC(=O)O[C@H]1C(=O)[C@@]2(C)[C@H]([C@H](OC(=O)c3ccccc3)[C@]3(O)C[C@H](OC(=O)[C@H](O)[C@@H](NC(=O)c4ccccc4)c4ccccc4)C(C)=C1C3(C)C)[C@]1(OC(C)=O)CO[C@@H]1C[C@@H]2O [Paclitaxel] | 0.00615 µM |  | 0.00325 µM | 0.022 µM |  | 0.00331 µM |  | 0.00461 µM | 0.00292 µM |  | 0.00426 µM | 0.00542 µM | 0.00377 µM |
| Nc1nc2[nH]cc(CCc3ccc(C(=O)N[C@@H](CCC(=O)O)C(=O)O)cc3)c2c(=O)[nH]1 [Pemetrexed] |  |  |  |  | > 10 µM | 0.146 µM |  |  |  | > 10 µM |  |  |  |
| COc1cc(C(=O)O)ccc1NC(=O)[C@@H]1N[C@@H](CC(C)(C)C)[C@](C#N)(c2ccc(Cl)cc2F)[C@H]1c1cccc(Cl)c1F [RG7388] | 3.56 µM | 0.0297 µM | 0.097 µM | 2.12 µM |  |  | 0.132 µM | 2.45 µM | 0.0391 µM |  | 0.0863 µM | 0.209 µM | 0.0302 µM |
| CNC(=O)c1cc(Oc2ccc(NC(=O)Nc3ccc(Cl)c(C(F)(F)F)c3)c(F)c2)ccn1 [Regorafenib] | 2.13 µM | 1.94 µM | 1.19 µM | 1.04 µM |  |  | 3.02 µM | 1.57 µM | 3.36 µM | 1.75 µM | 1.62 µM | 1.66 µM | 0.0867 µM |
| N#CC[C@H](C1CCCC1)n1cc(-c2ncnc3[nH]ccc23)cn1 [Ruxolitinib] | 0.0219 µM |  | 0.0454 µM | 0.0557 µM | 0.0804 µM | 0.78 µM | 0.069 µM | 0.0158 µM | 0.0171 µM | 0.0437 µM | 0.0851 µM | 0.142 µM | 0.0311 µM |
| Cc1cc(C)c(/C=C2\C(=O)Nc3ccccc32)[nH]1 [Semaxanib] |  | > 10 µM | > 10 µM |  | > 10 µM |  | > 10 µM | > 10 µM |  |  |  |  |  |
| CC(C)(O)CC(=O)NCCn1ccc2ncnc(Nc3ccc(Oc4cccc(C(F)(F)F)c4)c(Cl)c3)c21 [TAK-285] |  |  |  |  | > 2.5 µM | > 2.5 µM |  | > 2.5 µM |  | > 2.5 µM |  |  |  |
| Nc1nc2[nH]cnc2c(=S)[nH]1 [Thioguanine] | 0.322 µM |  | 2.35 µM | 0.742 µM |  | 1.3 µM | 2.1 µM | 1.44 µM | 1.78 µM | 1.9 µM | 0.296 µM | 0.383 µM | 0.938 µM |
| COc1cc2nccc(Oc3ccc(NC(=O)Nc4cc(C)on4)c(Cl)c3)c2cc1OC [Tivozanib] | 1.63 µM | 1.52 µM | 2.78 µM | 0.319 µM |  |  |  |  |  |  | 1.75 µM | 1.49 µM | 0.799 µM |
| C[C@@H]1CCN(C(=O)CC#N)C[C@@H]1N(C)c1ncnc2[nH]ccc12 [Tofacitinib] | 0.041 µM |  | 0.0995 µM | 0.141 µM | 0.204 µM | 0.616 µM | 0.075 µM | 0.0331 µM | 0.0423 µM | 0.0955 µM | 0.101 µM | 0.336 µM | 0.078 µM |
| CN(C)CCOc1ccc(/C(=C(/CCCl)c2ccccc2)c2ccccc2)cc1 [Toremifene] |  | 2.37 µM | 1.09 µM | 2.19 µM |  |  | 3.74 µM |  | 2.03 µM |  |  |  |  |
| CC(=O)Nc1cccc(-n2c(=O)n(C3CC3)c(=O)c3c(Nc4ccc(I)cc4F)n(C)c(=O)c(C)c32)c1 [Trametinib] | 0.00489 µM |  |  | > 0.25 µM | > 0.25 µM | > 0.25 µM |  | 0.00251 µM |  |  |  |  |  |
| COc1cc2/c(=N/c3ccc(Br)cc3F)nc[nH]c2cc1OCC1CCN(C)CC1 [Vandetanib] |  |  |  |  | > 1 µM |  |  |  |  |  |  |  |  |
| C[C@]1(c2nc3c(C(N)=O)cccc3[nH]2)CCCN1 [Veliparib] |  | 3.59 µM |  |  |  |  | 2.02 µM |  |  |  |  |  |  |
| CCCS(=O)(=O)Nc1ccc(F)c(C(=O)c2c[nH]c3ncc(-c4ccc(Cl)cc4)cc23)c1F [Vemurafenib] | 1.13 µM |  | 1.76 µM | 1.61 µM |  |  |  | 1.9 µM | 1.91 µM |  | 3.08 µM | 1.91 µM | 3.17 µM |
| CCn1c(=O)c(-c2cc[nH]n2)cc2c(C)nc(N)nc21 [Voxtalisib] | 1.64 µM |  | 0.457 µM | 0.685 µM |  |  |  | 0.88 µM | 0.818 µM |  | 1.34 µM | 1.11 µM | 3.19 µM |
| O=C(Nc1ccc(-c2ccnc(Nc3ccc(N4CCOCC4)cc3)n2)cc1)C1CCCN1 (configuration not stated) [XL019] | 2.49 µM | 1.38 µM | 1.37 µM |  | 1.87 µM | 3.2 µM | 2.22 µM | 0.658 µM | 1.66 µM | 1.51 µM |  |  |  |
